Results reported in patent publication US20120252796A1, “COMPOUNDS FOR THE TREATMENT OF DYSLIPIDEMIA AND RELATED DISEASES” (priority 2009, published 2012).
Blank lines part the entries; values can stand above or below the compound they belong to.

Columns and labels:
[1] = system: LPS induced dyslipidemia model C57 mice; assay: LDL-C lowering activity in LPS induced dyslipidemia model C57 mice; assay type: in vivo; conditions: male C57 mice, i.p. or oral, 24 hours after LPS, vs Vehicle group
Procedure: Male C57 mice of 7-10 week age are grouped based on non-fasting LDL-C levels, on next day these mice were administered with Vehicle or test compounds (i.p. or oral) and 30 min after compound administration lipolysaccharide (LPS) was administered. After LPS administration all animals were kept on fasting for 24 hours, after that animals were bled and LDL-C was measured. The percent change in LDL-C in test compound group Vs Vehicle group was calculated.

[2] = target: T1, PCSK9 (Homo sapiens, UniProt Q8NBP7); assay: PCSK9-LDLR in vitro Binding Assay (ELISA)
How it was run: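 Solid-phase ELISA: PCSK9 premixed with compound at varying concentrations added to immobilized recombinant LDLR-AB domain. Bound PCSK9 detected via biotinylated anti-His mAb and HRP-streptavidin, absorbance at 450 nm; EC50 by nonlinear regression from duplicate points.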
Target sequence in this assay (Q8NBP7 153-692): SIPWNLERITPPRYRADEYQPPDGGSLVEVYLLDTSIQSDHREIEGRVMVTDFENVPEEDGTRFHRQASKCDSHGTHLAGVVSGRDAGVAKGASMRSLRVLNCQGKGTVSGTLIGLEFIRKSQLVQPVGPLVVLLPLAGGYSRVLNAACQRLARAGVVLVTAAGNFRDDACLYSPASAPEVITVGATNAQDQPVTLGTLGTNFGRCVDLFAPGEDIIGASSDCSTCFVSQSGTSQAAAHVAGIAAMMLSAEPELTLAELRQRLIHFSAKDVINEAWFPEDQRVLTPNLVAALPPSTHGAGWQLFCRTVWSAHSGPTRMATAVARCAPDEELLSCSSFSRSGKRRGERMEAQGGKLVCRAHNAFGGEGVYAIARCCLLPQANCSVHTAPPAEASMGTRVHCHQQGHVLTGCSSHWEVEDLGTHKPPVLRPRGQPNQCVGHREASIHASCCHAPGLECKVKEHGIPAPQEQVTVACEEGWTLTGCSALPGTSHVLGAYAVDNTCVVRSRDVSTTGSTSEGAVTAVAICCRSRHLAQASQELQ
Target sequence in this assay (Q8NBP7 31-152 partner limits assumed): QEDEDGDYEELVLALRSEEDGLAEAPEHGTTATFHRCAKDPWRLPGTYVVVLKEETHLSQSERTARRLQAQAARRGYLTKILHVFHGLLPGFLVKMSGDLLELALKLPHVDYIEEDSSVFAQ

[3] = system: high fat diet C57 mice; assay: LDL-C lowering activity in high fat diet C57 mice; assay type: in vivo; conditions: C57 mice on high fat diet, orally once a day, 4-6 week treatment
Procedure: The in-vivo LDL-c lowering for test compound was tested in C57 mice which were kept on high fat diet for 4 weeks and the blood was collected by retro-orbital sinus puncture method under light ether anesthesia on day 0 (pretreatment), animal are grouped based on LDL-C levels, after that 4-6 week treatment with vehicle or test compound orally once a day was given. On completion of treatment on day 28 day and or on day 42 of the treatment the blood was collected for LDL-C levels measurement. The percent change in LDL-C in test compound group Vs Vehicle group was calculated.

[4] = system: HF-HC diet fed Syrian golden hamsters; assay: Lipid lowering effect in HF-HC diet fed hamster model; assay type: in vivo; parameters: concentration or dose not given beside the values; conditions: oral gavage once daily, day 14
Text: In this experiment, Syrian golden hamsters which were kept on high fat—high cholesterol (HF-HC) fructose diet for 2 weeks were divided into various groups based on LDL-C and Total cholesterol levels. The treatment was given by oral gavages once daily for 14 days. The blood was collected by retro-orbital sinus puncture method under light ether anesthesia on day 0 (pretreatment), and day 14 of the treatment for lipid levels measurements. The percent change in LDL-C in compound group Vs Vehicle group was calculated.

[5] = target: T1, PCSK9; assay: SPR binding studies (BIACORE3000); conditions: 25° C., phosphate buffer pH 7.4; compounds run at 10 nM, 100 nM and 1 micro mole, concentration of the value not stated
Procedure: Instrumentation: BIACORE3000 from GE Life Sciences was used and the Interaction analysis was performed at 25° C.
Buffers: phosphate buffer pH 7.4 supplied by Biacore supplemented with 0.01% dimethyl sulfoxide (DMSO) was used as running buffer during the assay.
Immobilization of Ligand: Sensor chip CM5 was used for analysis. The sensor chip consists of a carboxymethyl-modified dextran polymer linked to a gold-covered glass support. The ligand was diluted to 10 micro gram/ml in 10 mM sodium acetate, pH5.0 and immobilized to the sensor chip, using amine coupling. Running buffer without DMSO was used during immobilization. The surface was activated by injecting a solution containing 0.2M N-ethyl-N′-dimethyl aminopropyl-carbodiimide (EDC) and 50 mM N-hydroxy succinimide (NHS). The system was set for Aim for immobilization of about 1000 RU and the surface was blocked by injecting 1 Mehanolamine at pH 8.5. Then the surface was washed with 50 mM NaOH by injecting two 30 second-pulses to remove off non covalently bound ligand and to stabilize the baseline (automated procedure). Activated dextran was used as a reference surface. To ensure highest sensitivity the SPR Detector response was normalized before running the assay. By calibrating the detector at various light intensities under Conditions of total internal reflection (automated procedure). Solvent correction for DMSO was also carried to minimize the error in data.
Assay Design: A binding assay was set up for different compounds at three different concentrations (10 nM, 100 nM and 1 micro mole), and were injected over the reference and Ligand flow cells at a flow rate of 30 micro liter/min. Each cycle consisted of a 1-min waiting period for monitoring of the baseline stability and 3 minute injection of compound with a 5 minute Undisturbed dissociation phase, and the surface was regenerated with 50 mM NaoH solution. Compound responses in the reference flow cell were subtracted with that of ligand and a solvent correction run was carried in between and the binding potential of the compounds was reported as relative response units (RU).
Target sequence in this assay (Q8NBP7 153-692): as the sequence (Q8NBP7 153-692) above

Compound: 1-(2-methyl-5-((4-methyl-2-(4-(trifluoromethyl)phenyl)thiazol-5-yl)methyl)-1,3-dioxan-2-yl)-N—((tetrahydro-2H-pyran-4-yl)methyl)methanamine [Example 92]
% Change in LDL-C [1]: −35.8 ± 10.5%
% Inhibition PCSK9 ([2]; Concentration 1 μM): 11%
% Inhibition PCSK9 ([2]; Concentration 10 μM): 26%
% Inhibition PCSK9 ([2]; Concentration 100 μM): 40%

Compound: Cc1oc(-c2ccccc2)nc1CC1COC(C)(C(=O)NO)OC1 (single isomer, unassigned) [Example 4, N-(Hydroxy)-2-methyl-5-((5-methyl-2-phenyloxazol-4-yl)methyl)-1,3-dioxane-2-carboxamide]
% Change Vs Vehicle Control HDL-C [3]: −5%
% Change Vs Vehicle Control LDL-C [3]: −24%
% Change Vs Vehicle Control TC [3]: −14%
% Change Vs Vehicle Control TG [3]: −35%
% Change in LDL-C [1]: −29.4 ± 4.1%
% Change Vs Vehicle Control HDL-C [4]: −25%
% Change Vs Vehicle Control LDL-C [4]: −24%
% Change Vs Vehicle Control TC [4]: −27%
% Change Vs Vehicle Control TG [4]: −35%
inhibition at 10 µM ([2]; Concentration 10 μM): 35%
inhibition at 100 µM ([2]; Concentration 100 μM): 42%
Relative response (RU) [5]: 5.13 RU

Compound: Cc1oc(-c2ccccc2)nc1CC1COC(C)(C(=O)NCC2CCOCC2)OC1 (centres unmarked) [Example 8, 2-methyl-5-((5-methyl-2-phenyloxazol-4-yl)methyl)-N—((tetrahydro-2H-pyran-4-yl)methyl)-1,3-dioxane-2-carboxamide]
% Change in LDL-C [1]: −33.5 ± 5.4%
inhibition at 1 µM ([2]; Concentration 1 μM): 18%
inhibition at 10 µM ([2]; Concentration 10 μM): 23%
inhibition at 100 µM ([2]; Concentration 100 μM): 30%

Compound: Cc1oc(-c2ccccc2)nc1CC1COC(C)(C(=O)N2CCOCC2)OC1 (centres unmarked) [Example 12, (2-methyl-5-c-((5-methyl-2-phenyloxazol-4-yl)methyl)-1,3-dioxan-2-yl)(morpholino)methanone]
% Change in LDL-C [1]: −40 ± 10.0%
% Inhibition PCSK9 ([2]; Concentration 10 μM): 19%
% Inhibition PCSK9 ([2]; Concentration 100 μM): 18%

Compound: Cc1nc(-c2ccc(C(F)(F)F)cc2)sc1CC1COC(C)(C(=O)NO)OC1 (centres unmarked) [Example 91, N-hydroxy-2-methyl-5-((4-methyl-2-(4-(trifluoromethyl)phenyl)thiazol-5-yl)methyl)-1,3-dioxane-2-carboxamide]
% Change in LDL-C [1]: −37.4 ± 8.8%
inhibition at 1 µM ([2]; Concentration 1 μM): 8%
inhibition at 10 µM ([2]; Concentration 10 μM): 12%
inhibition at 100 µM ([2]; Concentration 100 μM): 32%

Compound: N-hydroxy-2-methyl-5-(2-(5-methyl-2-phenyloxazol-4-yl)ethyl)-1,3-dioxane-2-carboxamide [Example 34]
% Change Vs Vehicle Control HDL-C [4]: −10.3%
% Change Vs Vehicle Control LDL-C [4]: −38.2%
% Change Vs Vehicle Control TC [4]: −32.6%
% Change Vs Vehicle Control TG [4]: 2.2%
% Inhibition PCSK9 ([2]; Concentration 1 μM): 11%
% Inhibition PCSK9 ([2]; Concentration 10 μM): 12%
% Inhibition PCSK9 ([2]; Concentration 100 μM): 15%
Relative response (RU) [5]: 1.95 RU

Continued, in another order:

inhibition at 1 µM ([2]; Concentration 1 μM): 24%
inhibition at 10 µM ([2]; Concentration 10 μM): 15%
inhibition at 100 µM ([2]; Concentration 100 μM): 20%
Compound: Cc1oc(-c2ccccc2)nc1CCC1COC(C)(C(=O)NCC2CCOCC2)OC1 (centres unmarked) [Example 37, 2-methyl-5-(2-(5-methyl-2-phenyloxazol-4-yl)ethyl)-N—((tetrahydro-2H-pyran-4-yl)methyl)-1,3-dioxane-2-carboxamide]
% Change in LDL-C [1]: −35.4 ± 8.3%

inhibition at 1 µM ([2]; Concentration 1 μM): 20%
inhibition at 10 µM ([2]; Concentration 10 μM): 25%
inhibition at 100 µM ([2]; Concentration 100 μM): 11%
Compound: Cc1oc(-c2ccccc2)nc1CCC1COC(C)(C(=O)N2CCOCC2)OC1 (centres unmarked) [Example 40, (2-methyl-5-(2-(5-methyl-2-phenyloxazol-4-yl)ethyl)-1,3-dioxan-2-yl)(morpholino)methanone]
% Change in LDL-C [1]: −34.1 ± 5.7%

% Inhibition PCSK9 ([2]; Concentration 1 μM, 1 µM): 39%
% Inhibition PCSK9 ([2]; Concentration 10 μM, 10 µM): 40%
% Inhibition PCSK9 ([2]; Concentration 100 μM, 100 µM): 51%
Compound: Cc1ccc(-c2nc(CC3COC(C)(C(=O)NCC4CCOCC4)OC3)c(C)o2)cc1 (centres unmarked) [Example 63, 2-methyl-5-c-((5-methyl-2-(p-tolyl)oxazol-4-yl)methyl)-N—((tetrahydro-2H-pyran-4-yl)methyl)-1,3-dioxane-2-carboxamide]
% Change in LDL-C [1]: −9.0 ± 10.0%

% Inhibition PCSK9 ([2]; Concentration 1 μM, 1 µM): 25%
% Inhibition PCSK9 ([2]; Concentration 10 μM, 10 µM): 29%
% Inhibition PCSK9 ([2]; Concentration 100 μM, 100 µM): 65%
Relative response (RU) [5]: 2.23 RU
Compound: Cc1oc(-c2ccncc2)nc1CC1COC(C)(C(=O)NCC2CCOCC2)OC1 (centres unmarked) [Example 84, 2-methyl-5-c-((5-methyl-2-(pyridin-4-yl)oxazol-4-yl)methyl)-N—((tetrahydro-2H-pyran-4-yl)methyl)-1,3-dioxane-2-carboxamide]
% Change in LDL-C [1]: −25.8 ± 8.6%

inhibition at 1 µM ([2]; Concentration 1 μM): 20%
inhibition at 10 µM ([2]; Concentration 10 μM): 16%
inhibition at 100 µM ([2]; Concentration 100 μM): 49%
Compound: Cc1nc(-c2ccc(C(F)(F)F)cc2)sc1CC1COC(C)(C(=O)N2CCOCC2)OC1 (centres unmarked) [Example 93, (2-methyl-5-((4-methyl-2-(4-(trifluoromethyl)phenyl)thiazol-5-yl)methyl)-1,3-dioxan-2-yl)(morpholino)methanone]
% Change in LDL-C [1]: −46.0 ± 6.2%
